According to ChEMBL document CHEMBL4043226, “Design, synthesis and biological evaluation of benzamide and phenyltetrazole derivatives with amide and urea linkers as BCRP inhibitors” (Bioorg Med Chem Lett, 2017):

Tests used:
[1] = Resistance index, ratio of mitoxantrone IC50 for human H460/MX20 cells to mitoxantrone IC50 for human H460 cells at 1 uM (reference value: 28.66)
[2] = tested on: NCI-H460; test: Cytotoxicity against human H460 cells after 72 hrs by MTT assay; type: cell-based; settings: NCI-H460, 72 h
[3] = Resistance index, ratio of mitoxantrone IC50 for human H460/MX20 cells to mitoxantrone IC50 for human H460 cells at 3 uM (reference value: 28.66)
[4] = Cytotoxicity against human NCI-H460/MX20 cells after 72 hrs by MTT assay; type: cell-based; settings: NCI-H460/MX20, 72 h
[5] = target: T1, Broad substrate specificity ATP-binding cassette transporter ABCG2 (Homo sapiens, UniProt Q9UNQ0); test: Inhibition of BCRP (unknown origin) expressed in MCF-7 MX cells assessed as reduction in Hoechst 33342 accumulation preincubated for 30 mins followed by Hoechst 33342 addition measured every 60 secs up to 120 mins by fluorescence assay; type: cell-based
T1 sequence (Q9UNQ0 whole entry): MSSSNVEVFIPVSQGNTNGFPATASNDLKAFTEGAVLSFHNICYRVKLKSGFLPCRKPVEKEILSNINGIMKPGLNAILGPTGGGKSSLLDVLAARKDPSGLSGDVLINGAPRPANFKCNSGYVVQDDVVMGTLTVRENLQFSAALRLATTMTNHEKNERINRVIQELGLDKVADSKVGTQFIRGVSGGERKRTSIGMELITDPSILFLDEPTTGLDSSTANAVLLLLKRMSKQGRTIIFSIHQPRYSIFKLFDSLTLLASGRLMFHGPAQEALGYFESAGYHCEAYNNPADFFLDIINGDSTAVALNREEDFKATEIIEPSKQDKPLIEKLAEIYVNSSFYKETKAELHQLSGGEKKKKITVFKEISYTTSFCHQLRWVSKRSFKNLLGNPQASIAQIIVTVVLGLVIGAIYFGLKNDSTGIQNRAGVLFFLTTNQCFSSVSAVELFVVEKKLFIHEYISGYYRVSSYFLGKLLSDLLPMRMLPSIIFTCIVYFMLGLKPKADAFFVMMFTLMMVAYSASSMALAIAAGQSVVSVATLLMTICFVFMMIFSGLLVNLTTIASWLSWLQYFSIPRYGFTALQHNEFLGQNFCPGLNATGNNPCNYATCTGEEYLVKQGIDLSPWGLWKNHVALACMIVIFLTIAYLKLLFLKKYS

[6] = Resistance index, ratio of mitoxantrone IC50 for human H460/MX20 cells to mitoxantrone IC50 for human H460 cells at 10 uM (reference value: 28.66)
[7] = target: T2, ABCG2 (BCRP) (Homo sapiens, UniProt Q9UNQ0); test: Activation of ABCG2 (unknown origin) expressed in high five insect cell membrane vesicles assessed as induction of basal BCRP ATPase activity at 10 uM preincubated for 3 mins followed by ATP addition measured for 20 mins relative to control; settings: High Five insect cell membrane vesicles expressing ABCG2, read-out: FC
T2 sequence (Q9UNQ0 whole entry): T1 sequence (Q9UNQ0 whole entry)

[8] = Inhibition of ABCG2 in human H460/MX20 cells assessed as potentiation of mitoxantrone induced antiproliferative activity by measuring mitoxantrone IC50 at 10 uM preincubated for 2 hrs followed by mitoxantrone addition measured after 72 hrs by MTT assay (reference value: 6.161 +/- 0.172 microM)
[9] = target: T1, Broad substrate specificity ATP-binding cassette transporter ABCG2; test: Inhibition of ABCG2 (unknown origin) expressed in high five insect cell membrane vesicles assessed as reduction in BCRP ATPase activity up to 3 uM preincubated for 3 mins followed by ATP addition measured for 20 mins
[10] = target: T1, Broad substrate specificity ATP-binding cassette transporter ABCG2; test: Inhibition of ABCG2 (unknown origin) expressed in high five insect cell membrane vesicles assessed as reduction in BCRP ATPase activity at 3 to 30 uM preincubated for 3 mins followed by ATP addition measured for 20 mins
[11] = target: T1, Broad substrate specificity ATP-binding cassette transporter ABCG2; test: Inhibition of ABCG2 (unknown origin) expressed in high five insect cell membrane vesicles assessed as reduction in BCRP ATPase activity preincubated for 3 mins followed by ATP addition measured for 20 mins
[12] = Inhibition of ABCG2 in human H460/MX20 cells assessed as potentiation of mitoxantrone induced antiproliferative activity by measuring mitoxantrone IC50 at 1 uM preincubated for 2 hrs followed by mitoxantrone addition measured after 72 hrs by MTT assay (reference value: 6.161 +/- 0.172 microM)
[13] = target: T1, Broad substrate specificity ATP-binding cassette transporter ABCG2; test: Inhibition of ABCG2 (unknown origin) expressed in high five insect cell membrane vesicles assessed as reduction in basal BCRP ATPase activity up to 30 uM preincubated for 3 mins followed by ATP addition measured for 20 mins relative to control

| SMILES | Ratio IC50 [1] | IC50 [2] | Ratio IC50 [3] | IC50 [4] | IC50 [5] | Ratio IC50 [6] | fold induction at 20 min, 10 µM [7] | IC50 [8] | inhibition (INH) [9] | inhibition (INH) [10] | inhibition (INH) [11] | IC50 [12] | fold change (FC) [13] |
| --- | --- | --- | --- | --- | --- | --- | --- | --- | --- | --- | --- | --- | --- |
| CCCc1ccc(NC(=O)c2ccccc2NC(=O)c2ccc([N+](=O)[O-])cc2)cc1 | 3.87 | > 100 µM | 3.64 | > 100 µM | 940 nM | 2.76 | – | – | – | – | – | – | – |
| CCCc1ccc(NC(=O)c2ccccc2NC(=O)Nc2ccc([N+](=O)[O-])cc2)cc1 | 2.89 | > 100 µM | 2.24 | > 100 µM | – | 1.51 | 1.47 | 0.325 µM | Not Active | Active | – | – | – |
| COc1cccc(-n2nnc(-c3ccccc3NC(=O)Nc3ccc([N+](=O)[O-])cc3)n2)c1 | 3.87 | > 100 µM | 2.53 | > 100 µM | – | 1.87 | 1.94 | – | – | – | Dose-dependent effect | 0.832 µM | – |
| COc1cccc(-n2nnc(-c3ccccc3NC(=O)c3ccc(N)cc3)n2)c1 | 2.55 | > 100 µM | 2.28 | > 100 µM | – | 1.39 | – | – | – | – | Dose-dependent effect | – | 0.52 |
| CCCc1ccc(NC(=O)c2ccccc2NC(=O)Nc2cccc([N+](=O)[O-])c2)cc1 | 3.03 | > 100 µM | 2.33 | > 100 µM | – | 1.62 | 3.55 | 0.348 µM | – | – | Dose-dependent effect | – | – |
